A short description of data set [1]: Solubility in water. Type of data set: physicochemical.
Data set [2] relates to mice. As to the kind of experiment: Hot Plate, analgesic activity. Type of data set: in vivo. The procedure:
The products were tested subcutaneously in mice (50 mg/kg) by the method of N. B. EDDY and D. LEIMBACH, J. Pharm. Exptl. Therap., 1953, 107, 385.

Data set [3] in a line: Toxicity study (ED50 orally and intraperitoneally, method of Miller and Tainter). The settings on record: in vivo. As to the method:
The most interesting compounds of the present invention were subjected to toxicity studies.
The ED50 was determined orally and intraperitoneally and calculated by the method of MILLER and TAINTER (Proc. Soc. Exper. […]. 1944, 57, 261).

In data set [4] the test system is mice. The experiment in a line: Writhing Syndrome (P.B.Q.), analgesic activity after I.P. p-benzoquinone. The class given is in vivo. The settings on record: Mus musculus, po, P.O., read-out: Writhing Syndrome PBQ-ED50 (P.O.). As to the method:
(a) Writhing Syndrome (P.B.Q.)
After I.P. administration of p-benzoquinone to mice, the products were tested by the method of R. OKUN, S. C. LIDDON and L. LASAGNA, J. Pharmacol. Exptl. Therap., 1963, 139, 107. The results are expressed in ED50 in Table 1.
A general note: Writhing tests count abdominal constrictions after an irritant is injected.

Where [5] appears, read: ip, intraperitoneally, read-out: ED50 intraperitoneally.
The mark [6] stands for this setting: po, per os, read-out: ED50 per os.

The structures appear in SMILES notation. Where a name gives a salt, the structure may show the parent alone. Read-outs that look alike come from different tables or passages of the source.

Take `CCOC(=O)[C@]1(c2ccccc2)C[C@@H]1CN1CCCC1` (relative stereo) [Example 1, 1-phenyl 1-ethoxycarbonyl-2-pyrrolidinomethyl cyclopropane hydrochloride (Z)]: the solubility – broadly, the concentration that dissolves in the medium under given conditions – in data set [1] stood at 500 mg/mL.

Regarding `CCOC(=O)[C@]1(c2ccccc2)C[C@@H]1CNCCc1ccccc1` (relative stereo) [Example 2, Hydrochloride of 1-phenyl-1-ethoxycarbonyl-2-(2-phenylethyl)amino-methyl cyclopropane (Z)], in data set [1], the solubility is 500 mg/mL.

The compound `CCOC(=O)[C@]1(c2ccccc2)C[C@@H]1CNC` (relative stereo) [Example 3, Hydrochloride of 1-phenyl 1-ethoxycarbonyl-2-methyl amino-methyl cyclopropane (Z)] registered a solubility in data set [1] of 500 mg/mL.

In data set [1], `CCOC(=O)[C@]1(c2ccccc2)C[C@@H]1CN(CC)CC` (relative stereo) [Example 4, Hydrochloride of 1-phenyl 1-ethoxycarbonyl-2-diethyl amino-methyl cyclopropane (Z)] showed a solubility of 500 mg/mL.

The compound `CCOC(=O)[C@]1(c2ccccc2)C[C@@H]1CN(C)Cc1ccccc1` (relative stereo) [Example 5, Hydrochloride of 1-phenyl 1-ethoxycarbonyl-2-(benzylmethylaminomethyl)cyclopropane (Z)] returned a solubility in data set [1] of 100 mg/mL.

Compound `CCOC(=O)[C@]1(c2ccccc2)C[C@@H]1CNC(C)(C)C` (relative stereo) [Example 6, Hydrochloride of 1-phenyl 1-ethoxycarbonyl-2-tertbutylamino-methyl cyclopropane (Z)] displayed a solubility in data set [1] of 170 mg/mL.

In data set [1], `CCOC(=O)[C@]1(c2ccccc2)C[C@@H]1CN(CCO)CCO` (relative stereo) [Example 7, Maleate of 1-phenyl 1-ethoxycarbonyl 2-di(2'-hydroxyethyl)amino-methyl cyclopropane (Z)] had a solubility of 500 mg/mL.

Compound `CCOC(=O)[C@]1(c2ccccc2)C[C@@H]1CN1CCN(c2ccccc2)CC1` (relative stereo) [Example 8, Dihydrochloride of 1-phenyl 1-ethoxycarbonyl 2-(4'-phenyl-piperazinomethyl)cyclopropane (Z)] registered a solubility in data set [1] of 5 mg/mL.

Regarding `CCOC(=O)[C@]1(c2ccccc2)C[C@@H]1CN1CCOCC1` (relative stereo) [Example 9, Hydrochloride of 1-phenyl 1-ethoxycarbonyl 2-morpholino methyl cyclopropane (Z)], in data set [1], the solubility stood at 500 mg/mL.

Compound `CCOC(=O)[C@]1(c2ccccc2)C[C@@H]1CN(C)CCO` (relative stereo) [Example 10, Fumarate of 1-phenyl 1-ethoxycarbonyl 2-N-(2'-hydroxyethyl)N-methyl amino-methyl cyclopropane (Z)] yielded a solubility in data set [1] of 80 mg/mL.

In data set [1], `C#CC(C)(C)NC[C@H]1C[C@]1(C(=O)OCC)c1ccccc1` (relative stereo) [Example 12, Hydrochloride of 1-phenyl 1-ethoxycarbonyl-2-(1'-1'-dimethyl-2'-propynylaminomethyl)cyclopropane (Z)] had a solubility of 30 mg/mL.

The compound `CCOCCNC[C@H]1C[C@]1(C(=O)OCC)c1ccccc1` (relative stereo) [Example 13, Hydrochloride of 1-phenyl 1-ethoxycarbonyl 2-(2'-ethoxyethylaminomethyl)cyclopropane (Z)] showed a solubility in data set [1] of 500 mg/mL.

The compound `CCOC(=O)[C@]1(c2ccccc2)C[C@@H]1CNCc1ccccc1` (relative stereo) [Example 14, Hydrochloride of 1-phenyl-1-ethoxycarbonyl 2-benzyl amino methyl cyclopropane (Z)] yielded a solubility in data set [1] of 10 mg/mL.

In turn, `CCOC(=O)[C@]1(c2ccccc2)C[C@@H]1CNC(C)C` (relative stereo) [Example 15, Hydrochloride of 1-phenyl 1-ethoxycarbonyl 2-isopropyl aminomethyl cyclopropane (Z)] came in with a solubility in data set [1] of 500 mg/mL.

In data set [1], `CCOC(=O)[C@]1(c2ccccc2)C[C@@H]1CN(C(C)C)C(C)C` (relative stereo) [Example 16, Maleate of 1-phenyl 1-ethoxycarbonyl 2-diisopropyl aminomethyl cyclopropane (Z)] gave a solubility of 100 mg/mL.

`CCOC(=O)[C@]1(c2ccccc2)C[C@@H]1CN(C)CC` (relative stereo) [Example 17, Fumarate of 1-phenyl 1-ethoxycarbonyl 2-(N-methyl-N-ethyl-amino)methyl cyclopropane (Z)] displayed a solubility in data set [1] of 500 mg/mL.

`CCCCCN(C)C[C@H]1C[C@]1(C(=O)OCC)c1ccccc1` (relative stereo) [Example 18, Fumarate of 1-phenyl 1-ethoxycarbonyl 2-(N-methyl-N-pentylamino)methyl cyclopropane (Z)]: the solubility in data set [1] turned out to be 30 mg/mL.

On to `CCOC(=O)[C@]1(c2ccccc2)C[C@@H]1CN(C)CCN(C)C` (relative stereo) [Example 21, Dihydrochloride of 1-phenyl 1-ethoxycarbonyl-2-(N-methyl N-(2'-dimethylamino)ethyl)aminomethyl cyclopropane (Z)], for which the solubility in data set [1] amounted to 500 mg/mL.

Regarding `CCOC(=O)[C@]1(c2ccccc2)C[C@@H]1CN(C)CCc1ccccc1` (relative stereo) [Example 30], the “Hot Plate reaction time” value in data set [2] (50 mg/kg SC, mice) was 20 s. Also, the figures for the LD50 in data set [3] (setting [5]) and in data set [3] (setting [6]) were 110 mg/kg and 1000 mg/kg, respectively. For the same compound, the median effective dose (ED50) (in general, the midpoint of the dose-response relation) in data set [4] is 80 mg/kg.

Consider `COC(=O)[C@]1(c2ccccc2)C[C@@H]1CN(C)C` (relative stereo) [Example 34, Hydrochloride of 1-phenyl 1-methoxycarbonyl 2-dimethyl-amino-methyl cyclopropane (Z)], for which the solubility in data set [1] is 500 mg/mL.

In turn, `CCCOC(=O)[C@]1(c2ccccc2)C[C@@H]1CN(C)C` (relative stereo) [Example 35, Fumarate of 1-phenyl 1-propyloxycarbonyl 2-dimethyl aminomethyl cyclopropane (Z)] yielded a solubility in data set [1] of 150 mg/mL.

In the case of `CC(C)OC(=O)[C@]1(c2ccccc2)C[C@@H]1CN(C)C` (relative stereo) [Example 36, Hydrochloride of 1-phenyl 1-isopropyloxy-carbonyl 2-dimethylamino methyl cyclopropane (Z)], the “Hot Plate reaction time” value in data set [2] (50 mg/kg SC, mice) was 40 s. In addition, the LD50 in data set [3] (setting [5]) stood at 130 mg/kg; in data set [3] (setting [6]) it was 400 mg/kg. In data set [4], the ED50 was determined as 17 mg/kg.

As for `CN(C)C[C@H]1C[C@]1(C(=O)OCc1ccccc1)c1ccccc1` (relative stereo) [Example 37, Hydrochloride of 1-phenyl 1-benzyloxy carbonyl-2-dimethyl aminomethyl cyclopropane (Z)], the “Hot Plate reaction time” value in data set [2] (50 mg/kg SC, mice) is 30 s. The results for the LD50 in data set [3] (setting [5]) and in data set [3] (setting [6]) were 130 mg/kg and 1000 mg/kg, respectively. Further, the ED50 in data set [4] came to 92 mg/kg.

As for `CCOC(=O)[C@]1(c2ccc(Cl)cc2)C[C@@H]1CN(C)C` (relative stereo) [Example 41, 1-(4'-chlorophenyl) 1-ethoxycarbonyl 2-dimethylaminomethyl cyclopropane (Z) hydrochloride], the “Hot Plate reaction time” value in data set [2] (50 mg/kg SC, mice) was determined as 39 s. For the same compound, the figures for the LD50 in data set [3] (setting [5]) and in data set [3] (setting [6]) were 120 mg/kg and 400 mg/kg, respectively. Further, the 50% effective dose (ED50) in data set [4] stood at 19 mg/kg.

`CCOC(=O)[C@]1(c2cccc(Cl)c2)C[C@@H]1CN(C)C` (relative stereo) [Example 44, Maleate of 1-(m-chlorophenyl) 1-ethoxycarbonyl 2-dimethylaminomethyl cyclopropane (Z)]: the “Hot Plate reaction time” value in data set [2] (50 mg/kg SC, mice) turned out to be 28 s. The LD50 in data set [3] (setting [5]) was 170 mg/kg; in data set [3] (setting [6]), 760 mg/kg. Further, the ED50 in data set [4] is 30 mg/kg.

Take `CCOC(=O)[C@]1(c2ccc(Cl)c(Cl)c2)C[C@@H]1CN(C)C` (relative stereo) [Example 45, Hydrochloride of 1-(3,4 dichlorophenyl) 1-ethoxycarbonyl 2-dimethylaminomethyl cyclopropane (Z)]: the “Hot Plate reaction time” value in data set [2] (50 mg/kg SC, mice) was found to be 26 s. Moreover, the LD50 in data set [3] (setting [5]) turned out to be 170 mg/kg; in data set [3] (setting [6]) it was 550 mg/kg. Besides, in data set [4], the ED50 was found to be 60 mg/kg.

For the compound `COC(=O)[C@]1(c2ccc(N)cc2)C[C@@H]1CN(C)C` (relative stereo) [Example 46], in data set [2] (50 mg/kg SC, mice), the “Hot Plate reaction time” value was 25 s. Moreover, the figures for the LD50 in data set [3] (setting [5]) and in data set [3] (setting [6]) were 100 mg/kg and 420 mg/kg, respectively. The ED50 in data set [4] came to 34 mg/kg.

Regarding `COC(=O)[C@]1(c2ccc([N+](=O)[O-])cc2)C[C@@H]1CN(C)C` (relative stereo) [Example 47, Hydrochloride of 1-(p-nitrophenyl) 1-methoxycarbonyl 2-dimethylaminomethyl cyclopropane (Z)], the “Hot Plate reaction time” value in data set [2] (50 mg/kg SC, mice) came to 20 s. Moreover, the LD50 in data set [3] (setting [5]) was 250 mg/kg; in data set [3] (setting [6]), 1000 mg/kg. In addition, the 50% effective dose (ED50) in data set [4] turned out to be 21 mg/kg.

On to `CCOC(=O)[C@]1(c2ccc(OC)cc2)C[C@@H]1CN(C)C` (relative stereo) [Example 48, Hydrochloride of 1-(p-methoxyphenyl) 1-ethoxycarbonyl 2-dimethylaminomethyl cyclopropane (Z)], for which the “Hot Plate reaction time” value in data set [2] (50 mg/kg SC, mice) was 29 s. Further, the values for the LD50 in data set [3] (setting [5]) and in data set [3] (setting [6]) were 110 mg/kg and 420 mg/kg, respectively. The 50% effective dose (ED50) in data set [4] was determined as 95 mg/kg.

`CCC(=O)O[C@](Cc1ccccc1)(c1ccccc1)[C@H](C)CN(C)C` [Dextropropoxyphene, reference compound]: the “Hot Plate reaction time” value in data set [2] (mouse, in vivo) stood at 30 s. Also, in data set [4], the 50% effective dose (ED50) amounted to 30 mg/kg.

These data come from patent publication US4507318A, “1-Aryl 2-aminomethyl cyclopropane carboxylates (Z) as drugs in the treatment of pain” (Pierre Fabre S.A., priority 1981, dated 1985).
